Experimental data as given in patent publication US12679807B2 (MERCK SHARP & DOHME LLC, priority 2020, dated 2026).

Target: T1, GCS enzyme contained within Golgi preparations isolated from human A375 malignant melanoma skin cells (Homo sapiens, UniProt Q16739)
T1 construct: endogenous levels of GCS enzyme contained within Golgi preparations isolated from human A375 malignant melanoma skin cells; endogenous in cells; host or cells: A375 human malignant melanoma cells (crude Golgi preparation)
T1 sequence (Q16739 1-394): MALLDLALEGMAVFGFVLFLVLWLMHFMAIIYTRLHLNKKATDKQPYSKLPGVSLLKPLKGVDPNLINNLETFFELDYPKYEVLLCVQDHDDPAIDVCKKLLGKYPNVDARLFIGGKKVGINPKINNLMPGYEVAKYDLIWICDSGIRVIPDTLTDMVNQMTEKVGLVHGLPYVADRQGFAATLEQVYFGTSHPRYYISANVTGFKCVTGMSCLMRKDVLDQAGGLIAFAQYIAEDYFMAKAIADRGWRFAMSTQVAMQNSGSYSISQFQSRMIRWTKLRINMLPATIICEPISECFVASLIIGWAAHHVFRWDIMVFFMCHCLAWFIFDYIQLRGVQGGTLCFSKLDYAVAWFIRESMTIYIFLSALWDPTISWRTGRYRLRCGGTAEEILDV
Test: UDP-Glo glucosylceramide synthase biochemical assay
Settings: crude Golgi preparation from A375 cells; C6 ceramide and UDP-glucose substrates; 20 h incubation at room temperature; UDP detected by luminescence
Procedure, shortened: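 Endogenous enzyme in A375 Golgi preparations (1.5 μg total protein) was preincubated 30 min with compound, then reacted 20 h at room temperature with UDP-glucose and ceramide.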

Row | EC50 [nM] | Compound
1 | 0.59 | Cc1nnc(-c2ccc(-c3cccc4c3C(=O)N([C@H](C3CC3)C(C)(C)O)C4)c(F)c2C)o1 [Compound 72, (R)-2-(1-cyclopropyl-2-hydroxy-2-methylpropyl)-7-(2-fluoro-3-methyl-4-(5-methyl-1,3,4-oxadiazol-2-yl)phenyl)isoindolin-1-one]
2 | 55 | CC(C)(O)[C@@H](C1CC1)N1Cc2cccc(-c3cccnc3OCC(F)(F)F)c2C1=O [Compound 73, (R)-2-(1-cyclopropyl-2-hydroxy-2-methylpropyl)-7-(2-(2,2,2-trifluoroethoxy)pyridin-3-yl)isoindolin-1-one]
3 | 40 | CN1Cc2cc(-c3cccc4c3C(=O)N([C@H](C3CC3)C(C)(C)O)C4)ccc2CC1=O [Compound 74, (R)-7-(2-(1-cyclopropyl-2-hydroxy-2-methylpropyl)-3-oxoisoindolin-4-yl)-2-methyl-1,4-dihydroisoquinolin-3(2H)-one]
4 | 8.8 | COc1cnc2cc(-c3cccc4c3C(=O)N([C@H](C3CC3)C(C)(C)O)C4)ccc2n1 [Compound 75, (R)-2-(1-cyclopropyl-2-hydroxy-2-methylpropyl)-7-(2-methoxyquinoxalin-6-yl)isoindolin-1-one]
5 | 26 | CCc1nnc(-c2ccc(-c3cccc4c3C(=O)N([C@H](C3CC3)C(C)(C)O)C4)cc2)o1 [Compound 76, (R)-2-(1-cyclopropyl-2-hydroxy-2-methylpropyl)-7-(4-(5-ethyl-1,3,4-oxadiazol-2-yl)phenyl)isoindolin-1-one]
6 | 39 | CC(C)(O)[C@@H](C1CC1)N1Cc2cccc(-c3ccc(-c4ncco4)cc3)c2C1=O [Compound 77, (R)-2-(1-cyclopropyl-2-hydroxy-2-methylpropyl)-7-(4-(oxazol-2-yl)phenyl)isoindolin-1-one]
7 | 59 | Cc1noc(-c2ccc(-c3cccc4c3C(=O)N([C@H](C3CC3)C(C)(C)O)C4)cc2)n1 [Compound 78, (R)-2-(1-cyclopropyl-2-hydroxy-2-methylpropyl)-7-(4-(3-methyl-1,2,4-oxadiazol-5-yl)phenyl)isoindolin-1-one]
8 | 2.1 | Cn1nc(-c2cccc3c2C(=O)N([C@H](C2CC2)C(C)(C)O)C3)c2ccccc21 [Compound 79, (R)-2-(1-cyclopropyl-2-hydroxy-2-methylpropyl)-7-(1-methyl-1H-indazol-3-yl)isoindolin-1-one]
9 | 0.39 | Cn1nc(C(F)(F)F)c2cc(-c3cccc4c3C(=O)N([C@H](C3CC3)C(C)(C)O)C4)ccc21 [Compound 80, (R)-2-(1-cyclopropyl-2-hydroxy-2-methylpropyl)-7-(1-methyl-3-(trifluoromethyl)-1H-indazol-5-yl)isoindolin-1-one]
10 | 31 | Cc1nc(-c2cccc(-c3cccc4c3C(=O)N([C@H](C3CC3)C(C)(C)O)C4)c2)no1 [Compound 81, (R)-2-(1-cyclopropyl-2-hydroxy-2-methylpropyl)-7-(3-(5-methyl-1,2,4-oxadiazol-3-yl)phenyl)isoindolin-1-one]
11 | 46 | CC(C)(O)[C@@H](C1CC1)N1Cc2cccc(-c3cccc(-c4ncon4)c3)c2C1=O [Compound 82, (R)-7-(3-(1,2,4-oxadiazol-3-yl)phenyl)-2-(1-cyclopropyl-2-hydroxy-2-methylpropyl)isoindolin-1-one]
12 | 100 | CC(C)(O)[C@@H](C1CC1)N1Cc2cccc(-c3ccc(-c4ncon4)cc3)c2C1=O [Compound 83, (R)-7-(4-(1,2,4-oxadiazol-3-yl)phenyl)-2-(1-cyclopropyl-2-hydroxy-2-methylpropyl)isoindolin-1-one]
13 | 4.8 | CN1C(=O)Cc2ccc(-c3cccc4c3C(=O)N([C@H](C3CC3)C(C)(C)O)C4)cc21 [Compound 84, (R)-6-(2-(1-cyclopropyl-2-hydroxy-2-methylpropyl)-3-oxoisoindolin-4-yl)-1-methylindolin-2-one]
14 | 8.2 | CN1C(=O)Cc2cc(-c3cccc4c3C(=O)N([C@H](C3CC3)C(C)(C)O)C4)ccc21 [Compound 85, (R)-5-(2-(1-cyclopropyl-2-hydroxy-2-methylpropyl)-3-oxoisoindolin-4-yl)-1-methylindolin-2-one]
15 | 0.58 | Cc1nn(C)c2ccc(-c3cccc4c3C(=O)N([C@H](C3CC3)C(C)(C)O)C4)cc12 [Compound 86, (R)-2-(1-cyclopropyl-2-hydroxy-2-methylpropyl)-7-(1,3-dimethyl-1H-indazol-5-yl)isoindolin-1-one]
16 | 9.5 | Cc1cc2c(cnn2C)cc1-c1cccc2c1C(=O)N([C@H](C1CC1)C(C)(C)O)C2 [Compound 87, (R)-2-(1-cyclopropyl-2-hydroxy-2-methylpropyl)-7-(1,6-dimethyl-1H-indazol-5-yl)isoindolin-1-one]
17 | 90 | Cc1nc(-c2ccc(-c3cccc4c3C(=O)N([C@H](C3CC3)C(C)(C)O)C4)cc2)no1 [Compound 88, (R)-2-(1-cyclopropyl-2-hydroxy-2-methylpropyl)-7-(4-(5-methyl-1,2,4-oxadiazol-3-yl)phenyl)isoindolin-1-one]

Row | EC50 [nM] | Compound
18 | 420 | CC(C)(O)[C@@H](C1CC1)N1Cc2cccc(-c3cnn(-c4ccncc4)c3)c2C1=O [Compound 89, (R)-2-(1-cyclopropyl-2-hydroxy-2-methylpropyl)-7-(1-(pyridin-4-yl)-1H-pyrazol-4-yl)isoindolin-1-one]
19 | 2 | Cc1cc(-c2ccc(-c3cccc4c3C(=O)N([C@H](C3CC3)C(C)(C)O)C4)cc2)on1 [Compound 90, (R)-2-(1-cyclopropyl-2-hydroxy-2-methylpropyl)-7-(4-(3-methylisoxazol-5-yl)phenyl)isoindolin-1-one]
20 | 520 | Cc1ncc(-c2ccc(-c3cccc4c3C(=O)N([C@H](C3CC3)C(C)(C)O)C4)cc2)o1 [Compound 91, 2-[(1R)-1-cyclopropyl-2-hydroxy-2-methyl-propyl]-7-[4-(2-methyloxazol-5-yl)phenyl]isoindolin-1-one]
21 | 33 | CC(C)(O)[C@@H](C1CC1)N1Cc2cccc(-c3cc(Cl)cc(C#N)n3)c2C1=O [Compound 92, 4-chloro-6-[2-[(1R)-1-cyclopropyl-2-hydroxy-2-methyl-propyl]-3-oxo-isoindolin-4-yl]pyridine-2-carbonitrile]
22 | 55 | COc1cc(Cl)nc(-c2cccc3c2C(=O)N([C@H](C2CC2)C(C)(C)O)C3)c1 [Compound 93, (R)-7-(6-chloro-4-methoxypyridin-2-yl)-2-(1-cyclopropyl-2-hydroxy-2-methylpropyl)isoindolin-1-one]
23 | 24 | Cn1cc(-c2ccc(-c3cccc4c3C(=O)N([C@H](C3CC3)C(C)(C)O)C4)cc2)nn1 [Compound 94, 2-[(1R)-1-cyclopropyl-2-hydroxy-2-methyl-propyl]-7-[4-(1-methyltriazol-4-yl)phenyl]isoindolin-1-one]
24 | 83 | CC(C)(O)[C@@H](C1CC1)N1Cc2cccc(-c3ccc(-c4cnsc4)cc3)c2C1=O [Compound 95, (R)-2-(1-cyclopropyl-2-hydroxy-2-methylpropyl)-7-(4-(isothiazol-4-yl)phenyl)isoindolin-1-one]
25 | 1.4 | Cc1c(CO)noc1-c1ccc(-c2cccc3c2C(=O)N([C@H](C2CC2)C(C)(C)O)C3)cc1 [Compound 96, 2-[(1R)-1-cyclopropyl-2-hydroxy-2-methyl-propyl]-7-[4-[3-(hydroxymethyl)-4-methyl-isoxazol-5-yl]phenyl]isoindolin-1-one]
26 | 12 | COc1cc(C#N)nc(-c2cccc3c2C(=O)N([C@H](C2CC2)C(C)(C)O)C3)c1 [Compound 97, (R)-6-(2-(1-cyclopropyl-2-hydroxy-2-methylpropyl)-3-oxoisoindolin-4-yl)-4-methoxypicolinonitrile]
27 | 43 | CCOc1ccccc1C(=O)Nc1cccc2c1C(=O)N(C(C1CC1)C1CC1)C2 [Compound 98, N-(2-(Dicyclopropylmethyl)-3-oxoisoindolin-4-yl)-2-ethoxybenzamide]
28 | 140 | CCOc1ccccc1C(=O)Nc1cccc2c1C(=O)N([C@H](C)C(C)(C)O)C2 [Compound 99, (R)-2-Ethoxy-N-(2-(3-hydroxy-3-methylbutan-2-yl)-3-oxoisoindolin-4-yl)benzamide]
29 | 150 | CCOc1ccccc1C(=O)Nc1cccc2c1C(=O)N([C@@H](CO)C(C)C)C2 [Compound 100, (R)-2-ethoxy-N-(2-(1-hydroxy-3-methylbutan-2-yl)-3-oxoisoindolin-4-yl)benzamide]
30 | 260 | CCOc1ccccc1C(=O)Nc1cccc2c1C(=O)N([C@@H](CO)C1CC1)C2 [Compound 102, (R)-N-(2-(1-cyclopropyl-2-hydroxyethyl)-3-oxoisoindolin-4-yl)-2-ethoxybenzamide]
31 | 450 | CCOc1ccccc1C(=O)Nc1cccc2c1C(=O)N([C@@H]1CCCC[C@@H]1O)C2 [Compound 103, 2-ethoxy-N-(2-((1R,2S)-2-hydroxycyclohexyl)-3-oxoisoindolin-4-yl)benzamide]
32 | 650 | CCOc1ccccc1C(=O)Nc1cccc2c1C(=O)N(CC1(O)CCC1)C2 [Compound 105, 2-ethoxy-N-(2-((1-hydroxycyclobutyl)methyl)-3-oxoisoindolin-4-yl)benzamide]
33 | 720 | CCOc1ccccc1C(=O)Nc1cccc2c1C(=O)N(CC1(O)COC1)C2 [Compound 106, 2-ethoxy-N-(2-((3-hydroxyoxetan-3-yl)methyl)-3-oxoisoindolin-4-yl)benzamide]
